Test results: US20230341397A1, “PROTEASE BIOSENSORS AND METHODS OF VIRUS DETECTION” (Montana Molecular LLC, priority 2020, published 2023)

Legend:
HEK 293 cells = conditions: all GC376 concentrations (FIG. 11B)
[1] = tested on: feline infectious peritonitis virus (FPIV); conditions: Kim et al. 2016; disease otherwise 100% lethal; cited from earlier work

CC(C)C[C@H](NC(=O)OCc1ccccc1)C(=O)N[C@@H](C[C@@H]1CCNC1=O)C(O)S(=O)(=O)[O-].[Na+] (some centres unmarked) [GC376]
cell death / red fluorescent protein signal (HEK 293 cells): not due to cell death
outcome in cats with clinical FPIV [1]: rescues them
